Source: US9580444B2, “Polycyclic pyrazolinone derivative and herbicide comprising same as effective component thereof” (priority 2013, dated 2017)

Key:
Type in all cases: in vivo
corn = assay: Test Example-4: phytotoxicity by a foliage treatment after weeds are generated under upland field conditions; details: 500 g a.i/ha, foliage treatment after emergence, about 14 days after treatment, score 0-5
Outline: (§1)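 Upland soil; seeds covered ~0.5 cm, grown 14 d. Foliar spray of diluted WP or EC, predetermined dose, 4000 L water/ha. Herbicidal effect and corn phytotoxicity scored on a six-stage 0–5 scale ~14 d post-treatment.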

[1] = system: Monochoria vaginalis (monochoria); assay: Test Example-1: herbicidal effect by a treatment before weeds are generated under submerged conditions; details: 500 g a.i/ha, pre-emergence treatment, about 15 days after treatment, score 0-5
Outline: (§2)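 Pre-emergence, submerged paddy soil; WP/EC formulation diluted, applied to floodwater at seeding day at predetermined dose; visual herbicidal score 0–5 at ~15 days after treatment.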

[2] = system: Eleocharis acicularis (needle spikerush); assay: as above; details: 500 g a.i/ha, pre-emergence treatment, about 15 days after treatment, score 0-5
Outline: as §2

[3] = system: Echinochloa oryzicola (barnyard grass); assay: as above; details: 500 g a.i/ha, pre-emergence treatment, about 15 days after treatment, score 0-5
Outline: as §2

[4] = system: other annual broad leaf weeds (Lindernia procumbens, Rotala indica, Elatine triandra); assay: as above; details: 500 g a.i/ha, pre-emergence treatment, about 15 days after treatment, score 0-5
Outline: as §2

[5] = system: Scirpus juncoides (bulrush); assay: as above; details: 500 g a.i/ha, pre-emergence treatment, about 15 days after treatment, score 0-5
Outline: as §2

[6] = system: Cyperus difformis (smallflower umbrella plant); assay: as above; details: 500 g a.i/ha, pre-emergence treatment, about 15 days after treatment, score 0-5
Outline: as §2

[7] = system: Chenopodium album (common lambsquarters); assay: Test Example-4: herbicidal effect by a foliage treatment after weeds are generated under upland field conditions; details: 500 g a.i/ha, foliage treatment after emergence, about 14 days after treatment, score 0-5
Outline: as §1

[8] = system: Amaranthus viridis (green amaranthus); assay: as above; details: 500 g a.i/ha, foliage treatment after emergence, about 14 days after treatment, score 0-5
Outline: as §1

[9] = system: Abutilon theophrasti (velvetleaf); assay: as above; details: 500 g a.i/ha, foliage treatment after emergence, about 14 days after treatment, score 0-5
Outline: as §1

SMILES | Phytotoxicity Corn (corn) | Herbicidal effect Monochoria vaginalis [1] | Herbicidal effect Eleocharis acicularis [2] | Herbicidal effect Echinochloa oryzicola [3] | Herbicidal effect Broadleaf weed [4] | Herbicidal effect Scirpus juncoides [5] | Herbicidal effect Cyperus difformis [6] | Herbicidal effect Chenopodium album [7] | Herbicidal effect Amaranthus viridis [8] | Herbicidal effect Abutilon theophrast [9]
O=c1c(-c2ccc(Cl)cc2F)c(Cl)n2n1CCCC2 [Example 1-125] | 1 (Herbicidal effect/phytotoxicity was 10% to 30%) | 5 (Herbicidal effect/phytotoxicity was 90% or greater) | 5 (Herbicidal effect/phytotoxicity was 90% or greater) | 5 (Herbicidal effect/phytotoxicity was 90% or greater) | 5 (Herbicidal effect/phytotoxicity was 90% or greater) | 5 (Herbicidal effect/phytotoxicity was 90% or greater) | 5 (Herbicidal effect/phytotoxicity was 90% or greater) | 5 (Herbicidal effect/phytotoxicity was 90% or greater) | 5 (Herbicidal effect/phytotoxicity was 90% or greater) | 5 (Herbicidal effect/phytotoxicity was 90% or greater)
Cc1cc(-c2c(Cl)n3n(c2=O)CCCC3)c(F)cc1Cl [Example 1-130] | 1 (Herbicidal effect/phytotoxicity was 10% to 30%) | 5 (Herbicidal effect/phytotoxicity was 90% or greater) | 5 (Herbicidal effect/phytotoxicity was 90% or greater) | 5 (Herbicidal effect/phytotoxicity was 90% or greater) | 5 (Herbicidal effect/phytotoxicity was 90% or greater) | 5 (Herbicidal effect/phytotoxicity was 90% or greater) | 5 (Herbicidal effect/phytotoxicity was 90% or greater) | 5 (Herbicidal effect/phytotoxicity was 90% or greater) | 5 (Herbicidal effect/phytotoxicity was 90% or greater) | 5 (Herbicidal effect/phytotoxicity was 90% or greater)
COc1cc(-c2c(Cl)n3n(c2=O)CCCC3)c(F)cc1Cl [Example 1-140] | 2 (Herbicidal effect/phytotoxicity was 30% to 50%) | 5 (Herbicidal effect/phytotoxicity was 90% or greater) | 5 (Herbicidal effect/phytotoxicity was 90% or greater) | 5 (Herbicidal effect/phytotoxicity was 90% or greater) | 5 (Herbicidal effect/phytotoxicity was 90% or greater) | 5 (Herbicidal effect/phytotoxicity was 90% or greater) | 5 (Herbicidal effect/phytotoxicity was 90% or greater) | 5 (Herbicidal effect/phytotoxicity was 90% or greater) | 5 (Herbicidal effect/phytotoxicity was 90% or greater) | 5 (Herbicidal effect/phytotoxicity was 90% or greater)
CCOc1cc(-c2c(Cl)n3n(c2=O)CCCC3)c(F)cc1Cl [Example 1-146] | 0 (Herbicidal effect/phytotoxicity was 0% to 10%) | 5 (Herbicidal effect/phytotoxicity was 90% or greater) | 5 (Herbicidal effect/phytotoxicity was 90% or greater) | 5 (Herbicidal effect/phytotoxicity was 90% or greater) | 5 (Herbicidal effect/phytotoxicity was 90% or greater) | 5 (Herbicidal effect/phytotoxicity was 90% or greater) | 5 (Herbicidal effect/phytotoxicity was 90% or greater) | 5 (Herbicidal effect/phytotoxicity was 90% or greater) | 5 (Herbicidal effect/phytotoxicity was 90% or greater) | 5 (Herbicidal effect/phytotoxicity was 90% or greater)
CC(C)COc1cc(-c2c(Cl)n3n(c2=O)CCCC3)c(F)cc1Cl [Example 1-156] | 2 (Herbicidal effect/phytotoxicity was 30% to 50%) | 5 (Herbicidal effect/phytotoxicity was 90% or greater) | 5 (Herbicidal effect/phytotoxicity was 90% or greater) | 5 (Herbicidal effect/phytotoxicity was 90% or greater) | 5 (Herbicidal effect/phytotoxicity was 90% or greater) | 5 (Herbicidal effect/phytotoxicity was 90% or greater) | 5 (Herbicidal effect/phytotoxicity was 90% or greater) | 5 (Herbicidal effect/phytotoxicity was 90% or greater) | 5 (Herbicidal effect/phytotoxicity was 90% or greater) | 5 (Herbicidal effect/phytotoxicity was 90% or greater)
N#CCOc1cc(-c2c(Cl)n3n(c2=O)CCCC3)c(F)cc1Cl [Example 1-171] | 3 (Herbicidal effect/phytotoxicity was 50% to 70%) | 5 (Herbicidal effect/phytotoxicity was 90% or greater) | 5 (Herbicidal effect/phytotoxicity was 90% or greater) | 5 (Herbicidal effect/phytotoxicity was 90% or greater) | 5 (Herbicidal effect/phytotoxicity was 90% or greater) | 5 (Herbicidal effect/phytotoxicity was 90% or greater) | 5 (Herbicidal effect/phytotoxicity was 90% or greater) | 5 (Herbicidal effect/phytotoxicity was 90% or greater) | 5 (Herbicidal effect/phytotoxicity was 90% or greater) | 5 (Herbicidal effect/phytotoxicity was 90% or greater)
O=c1c(-c2cc(OCC3CC3)c(Cl)cc2F)c(Cl)n2n1CCCC2 [Example 1-176] | 2 (Herbicidal effect/phytotoxicity was 30% to 50%) | 5 (Herbicidal effect/phytotoxicity was 90% or greater) | 5 (Herbicidal effect/phytotoxicity was 90% or greater) | 5 (Herbicidal effect/phytotoxicity was 90% or greater) | 5 (Herbicidal effect/phytotoxicity was 90% or greater) | 5 (Herbicidal effect/phytotoxicity was 90% or greater) | 5 (Herbicidal effect/phytotoxicity was 90% or greater) | 5 (Herbicidal effect/phytotoxicity was 90% or greater) | 5 (Herbicidal effect/phytotoxicity was 90% or greater) | 5 (Herbicidal effect/phytotoxicity was 90% or greater)
O=c1c(-c2cc(OCC3CCCCC3)c(Cl)cc2F)c(Cl)n2n1CCCC2 [Example 1-188] | 0 (Herbicidal effect/phytotoxicity was 0% to 10%) | 5 (Herbicidal effect/phytotoxicity was 90% or greater) | 5 (Herbicidal effect/phytotoxicity was 90% or greater) | 5 (Herbicidal effect/phytotoxicity was 90% or greater) | 5 (Herbicidal effect/phytotoxicity was 90% or greater) | 5 (Herbicidal effect/phytotoxicity was 90% or greater) | 5 (Herbicidal effect/phytotoxicity was 90% or greater) | 5 (Herbicidal effect/phytotoxicity was 90% or greater) | 5 (Herbicidal effect/phytotoxicity was 90% or greater) | 5 (Herbicidal effect/phytotoxicity was 90% or greater)
O=c1c(-c2cc(OCc3ccc(F)cc3)c(Cl)cc2F)c(Cl)n2n1CCCC2 [Example 1-192] | 1 (Herbicidal effect/phytotoxicity was 10% to 30%) | 5 (Herbicidal effect/phytotoxicity was 90% or greater) | 5 (Herbicidal effect/phytotoxicity was 90% or greater) | 5 (Herbicidal effect/phytotoxicity was 90% or greater) | 5 (Herbicidal effect/phytotoxicity was 90% or greater) | 5 (Herbicidal effect/phytotoxicity was 90% or greater) | 5 (Herbicidal effect/phytotoxicity was 90% or greater) | 5 (Herbicidal effect/phytotoxicity was 90% or greater) | 5 (Herbicidal effect/phytotoxicity was 90% or greater) | 5 (Herbicidal effect/phytotoxicity was 90% or greater)
C=CCOc1cc(-c2c(Cl)n3n(c2=O)CCCC3)c(F)cc1Cl [Example 1-201] | 2 (Herbicidal effect/phytotoxicity was 30% to 50%) | 5 (Herbicidal effect/phytotoxicity was 90% or greater) | 5 (Herbicidal effect/phytotoxicity was 90% or greater) | 5 (Herbicidal effect/phytotoxicity was 90% or greater) | 5 (Herbicidal effect/phytotoxicity was 90% or greater) | 5 (Herbicidal effect/phytotoxicity was 90% or greater) | 5 (Herbicidal effect/phytotoxicity was 90% or greater) | 5 (Herbicidal effect/phytotoxicity was 90% or greater) | 5 (Herbicidal effect/phytotoxicity was 90% or greater) | 5 (Herbicidal effect/phytotoxicity was 90% or greater)
